Laboratory results reported in PubChem BioAssay (NCI).
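The concentration for 50% growth inhibition is given as GI50. TGI marks complete inhibition of growth.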

How the values were obtained:
Assay in all cases: DTP human tumour cell line panel, 384-well format
[1] = system: 786-0 renal
[2] = system: A498 renal
[3] = system: A549 NSCLC
[4] = system: ACHN renal
[5] = system: BT-549 breast
[6] = system: CAKI-1 renal
[7] = system: CCRF-CEM leukemia
[8] = system: DU-145 prostate
[9] = system: HCT-116 colon
[10] = system: HCT-15 colon
[11] = system: HL-60(TB) leukemia
[12] = system: HOP-62 NSCLC
[13] = system: HOP-92 NSCLC
[14] = system: HS 578T breast
[15] = system: HT29 colon
[16] = system: IGROV1 ovarian
[17] = system: K-562 leukemia
[18] = system: KM12 colon
[19] = system: LOX IMVI melanoma
[20] = system: M14 melanoma
[21] = system: MALME-3M melanoma
[22] = system: MCF7 breast
[23] = system: MDA-MB-231 breast
[24] = system: MDA-MB-435 melanoma
[25] = system: MDA-MB-468 breast
[26] = system: MOLT-4 leukemia
[27] = system: NCI-H226 lung
[28] = system: NCI-H23 lung
[29] = system: NCI-H522 lung
[30] = system: NCI/ADR-RES ovarian
[31] = system: OVCAR-3 ovarian
[32] = system: OVCAR-4 ovarian
[33] = system: OVCAR-8 ovarian
[34] = system: PC-3 prostate
[35] = system: RPMI-8226 leukemia
[36] = system: RXF 393 renal
[37] = system: SF-268 CNS
[38] = system: SF-295 CNS
[39] = system: SF-539 CNS
[40] = system: SK-MEL-2 melanoma
[41] = system: SK-MEL-28 melanoma
[42] = system: SK-OV-3 ovarian
[43] = system: SN12C renal
[44] = system: SNB-19 CNS
[45] = system: SNB-75 CNS
[46] = system: SW-620 colon
[47] = system: T-47D breast
[48] = system: TK-10 renal
[49] = system: U251 glioblastoma
[50] = system: UACC-257 melanoma
[51] = system: UACC-62 melanoma
[52] = system: UO-31 renal
[53] = system: EKVX NSCLC
[54] = system: NCI-H322M lung
[55] = system: OVCAR-5 ovarian

O=NN(CCCl)C(=O)NC1CCCCC1
GI50 [1]: 20.2 µM
TGI [1]: 66.4 µM
GI50 [2]: 73.1 µM
GI50 [3]: 51.8 µM
GI50 [4]: 24.9 µM
TGI [4]: 71.4 µM
GI50 [5]: 21.4 µM
TGI [5]: 59.6 µM
GI50 [6]: 22.9 µM
TGI [6]: 75.4 µM
GI50 [7]: 19.5 µM
TGI [7]: 33.8 µM
GI50 [8]: 51.9 µM
GI50 [9]: 32.3 µM
GI50 [10]: 19.1 µM
TGI [10]: 41.3 µM
GI50 [11]: 12.2 µM
TGI [11]: 24.8 µM
GI50 [12]: 18.9 µM
TGI [12]: 56.5 µM
GI50 [13]: 28.9 µM
GI50 [14]: 13.1 µM
TGI [14]: 42.5 µM
GI50 [15]: 27.1 µM
TGI [15]: 78 µM
GI50 [16]: 78 µM
GI50 [17]: 20.1 µM
TGI [17]: 42.5 µM
GI50 [18]: 22.2 µM
TGI [18]: 86.8 µM
GI50 [19]: 13.2 µM
TGI [19]: 38 µM
GI50 [20]: 21.9 µM
TGI [20]: 65.2 µM
GI50 [21]: 18.6 µM
TGI [21]: 43.5 µM
GI50 [22]: 41.1 µM
GI50 [23]: 76.1 µM
GI50 [24]: 26 µM
TGI [24]: 81.2 µM
GI50 [25]: 13.2 µM
TGI [25]: 28.4 µM
GI50 [26]: 12.4 µM
TGI [26]: 25 µM
GI50 [27]: 29.9 µM
GI50 [28]: 30.3 µM
GI50 [29]: 15.4 µM
TGI [29]: 29 µM
GI50 [30]: 22.7 µM
TGI [30]: 54.4 µM
GI50 [31]: 27.4 µM
TGI [31]: 98 µM
GI50 [32]: 20.6 µM
TGI [32]: 50.3 µM
GI50 [33]: 21.4 µM
TGI [33]: 49.6 µM
GI50 [34]: 29 µM
GI50 [35]: 13.7 µM
TGI [35]: 26.9 µM
GI50 [36]: 17.3 µM
TGI [36]: 36 µM
GI50 [37]: 29.3 µM
GI50 [38]: 27.2 µM
GI50 [39]: 16.4 µM
TGI [39]: 35.3 µM
GI50 [40]: 32.5 µM
TGI [40]: 78.9 µM
GI50 [41]: 42.5 µM
GI50 [42]: 55.1 µM
GI50 [43]: 21.3 µM
TGI [43]: 61.2 µM
GI50 [44]: 34.9 µM
GI50 [45]: 34.6 µM
GI50 [46]: 20.9 µM
TGI [46]: 69.1 µM
GI50 [47]: 34.6 µM
GI50 [48]: 32.8 µM
GI50 [49]: 18.9 µM
GI50 [50]: 52.1 µM
GI50 [51]: 12.5 µM
TGI [51]: 41.6 µM
GI50 [52]: 24.3 µM
TGI [52]: 63.1 µM

Nc1nc(=S)c2[nH]cnc2[nH]1
GI50 [1]: 0.469 µM
TGI [1]: 12 µM
GI50 [2]: 4.85 µM
TGI [2]: 28.7 µM
GI50 [3]: 2.1 µM
TGI [3]: 7.53 µM
GI50 [4]: 1.52 µM
TGI [4]: 5.28 µM
GI50 [5]: 0.449 µM
TGI [5]: 2.31 µM
GI50 [6]: 0.371 µM
TGI [6]: 2.62 µM
GI50 [7]: 0.212 µM
TGI [7]: 0.383 µM
GI50 [8]: 0.311 µM
TGI [8]: 1.18 µM
GI50 [53]: 0.544 µM
TGI [53]: 12.2 µM
GI50 [9]: 0.341 µM
TGI [9]: 7.39 µM
GI50 [10]: 0.988 µM
TGI [10]: 7.18 µM
GI50 [11]: 0.376 µM
TGI [11]: 1.1 µM
GI50 [12]: 0.304 µM
TGI [12]: 0.784 µM
GI50 [13]: 0.393 µM
TGI [13]: 25.2 µM
GI50 [14]: 1.25 µM
TGI [14]: 4.46 µM
GI50 [15]: 0.906 µM
TGI [15]: 5.3 µM
GI50 [16]: 3.51 µM
TGI [16]: 27.7 µM
GI50 [17]: 0.366 µM
TGI [17]: 1.21 µM
GI50 [18]: 0.917 µM
TGI [18]: 4.9 µM
GI50 [19]: 0.206 µM
TGI [19]: 0.426 µM
GI50 [20]: 0.379 µM
TGI [20]: 4.41 µM
GI50 [21]: 0.718 µM
TGI [21]: 3.47 µM
GI50 [22]: 0.297 µM
TGI [22]: 1.33 µM
GI50 [23]: 0.283 µM
TGI [23]: 0.918 µM
GI50 [24]: 1.09 µM
TGI [24]: 4.73 µM
GI50 [25]: 0.238 µM
TGI [25]: 0.565 µM
GI50 [26]: 0.112 µM
TGI [26]: 0.248 µM
GI50 [27]: 0.36 µM
TGI [27]: 3.92 µM
GI50 [28]: 0.377 µM
TGI [28]: 1.69 µM
GI50 [54]: 2.21 µM
TGI [54]: 21.2 µM
GI50 [29]: 1.03 µM
TGI [29]: 2.84 µM
GI50 [30]: 0.375 µM
TGI [30]: 1.52 µM
GI50 [31]: 0.306 µM
TGI [31]: 1.03 µM
GI50 [32]: 1.05 µM
TGI [32]: 7.19 µM
GI50 [55]: 0.199 µM
TGI [55]: 0.465 µM
GI50 [33]: 0.362 µM
TGI [33]: 1.56 µM
GI50 [34]: 1.34 µM
TGI [34]: 14.5 µM
GI50 [35]: 0.139 µM
TGI [35]: 0.296 µM
GI50 [36]: 0.728 µM
TGI [36]: 3.51 µM
GI50 [37]: 0.428 µM
TGI [37]: 2.4 µM
GI50 [38]: 0.248 µM
TGI [38]: 0.735 µM
GI50 [39]: 0.686 µM
TGI [39]: 7.92 µM
GI50 [40]: 3.32 µM
TGI [40]: 7.34 µM
GI50 [41]: 4.57 µM
TGI [41]: 26.7 µM
GI50 [42]: 0.541 µM
TGI [42]: 9.85 µM
GI50 [43]: 1.44 µM
TGI [43]: 8.29 µM
GI50 [44]: 28 µM
GI50 [45]: 0.353 µM
TGI [45]: 13.2 µM
GI50 [46]: 3.02 µM
TGI [46]: 23.3 µM
GI50 [47]: 0.715 µM
TGI [47]: 15.5 µM
GI50 [48]: 0.251 µM
TGI [48]: 0.625 µM
GI50 [49]: 3.4 µM
TGI [49]: 83.3 µM
GI50 [50]: 1.13 µM
TGI [50]: 8.82 µM
GI50 [51]: 0.366 µM
TGI [51]: 1.69 µM
GI50 [52]: 1.5 µM
TGI [52]: 11.8 µM
